pEC50, pIC50: −log10 of the molar value.
Legend:
B cell receptor = test: whole blood anti-IgD stimulated CD69 on CD19+ B cells; type: cell-based; conditions: whole blood from four healthy donors, 2 hours compound, anti-human IgD 18 hours
Procedure: Blood from four healthy donors was incubated for 2 hours with the compounds shown over a concentration range, and then stimulated with anti-human IgD [10 μg/mL] for 18 hours. The mean fluorescent intensity (MFI) of CD69 (and CD86, data not shown) on gated CD19+ B cells was measured by flow cytometry.

[1] = test system: expression of activation markers CD69 and CD86; test: in vivo potency: mice gavaged, BCR stimulated with IgM, CD69 and CD86 monitored by flow cytometry; conditions: gavage, 3 h post-dose, versus ibrutinib, FIG. 124
Procedure: Mice were gavaged at increasing drug concentration and sacrificed at one time point (3 h post-dose). BCR is stimulated with IgM and the expression of activation markers CD69 and CD86 are monitored by flow cytometry to determine EC50's.

CLL [2] = test: clinical study in CLL (ALC and SPD); type: in vivo, human; conditions: CLL patients, FIG. 125
Excerpt: J. Med. 2013, 369, 32-42.

CLL [3] = test: apoptosis in treated CLL patients; type: in vivo, human; conditions: FIG. 144
CXCL12 [4] = test: CXCL12 levels in treated patients; type: in vivo, human; conditions: FIG. 145
CCL2 [5] = test: CCL2 levels in treated patients; type: in vivo, human; conditions: FIG. 146
[6] = test system: human platelet-mediated thrombosis; test: in vivo human thrombus formation in the VWF HA1 mice model; conditions: human platelets preincubated with BTK inhibitor, laser-induced injury
human platelets = test: GPVI (convulxin-induced) platelet aggregation; type: cell-based; conditions: CVX-induced
Procedure: GPVI platelet aggregation was measured for Formula (XVIII) and Formula (XX-A) (ibrutinib). Blood was obtained from untreated humans, and platelets were purified from […] by centrifugation. Cells were resuspended to a final concentration of 350,000/μL in buffer containing 145 mmol/L NaCl, 10 mmol/L HEPES, 0.5 mmol/L Na2HPO4, 5 mmol/L KCl, 2 mmol/L MgCl2, 1 mmol/L CaCl2), and 0.1% glucose, at pH 7.4. Stock solutions of […] were prepared on the day of experimentation and added to platelet suspensions 5 minutes (37° C., 1200 rpm) before the induction of aggregation. Aggregation was assessed with a Chronolog Lumi-Aggregometer (model 540 VS; Chronolog, Havertown, Pa.) and permitted to proceed for 6 minutes after the addition of agonist. The results are reported as maximum percent change in light transmittance from baseline with platelet buffer used as a reference.
In FIG. 123, the results of CVX-induced (250 ng/mL) human platelet aggregation results before and 15 minutes after administration of the BTK inhibitors to 6 healthy individuals are shown.

canine B cell lymphoma = test: veterinary clinical trial in companion dogs with B cell lymphoma; type: in vivo
Procedure: Enrollment has completed for both arms.
Intra-subject dose escalation was allowed. Six of the 11 dogs that initiated at 2.5 or 5 mg/kg once daily were escalated and completed the study with dosages of 10 mg/kg twice daily. Among all the dose cohorts, 8 dogs had shrinkage of target lesions >20%; the best tumor responses were between 45-49% reduction in the sum of target lesions in two dogs. […] CR were defined as disappearance of all evidence of disease per evaluator judgment, and absence of new lesions. Vali, et al., Vet. Comp. Oncol. 2010, 8, 28-37.
Of these, 7 dogs had shrinkage of target lesions >20%, providing evidence of biological activity for the combination; four of these dogs achieved a PR. […] The initial reductions in the sum of target lesions continued to deepen during the course of therapy in 7 of the 10 dogs.

CYP3A4 = CYP3A4 (Homo sapiens, UniProt P08684); test: loss of parent drug as catalyzed by CYPs; type: in vitro ADME; conditions: in vitro loss of parent drug
Sequence of CYP3A4 (P08684 whole entry): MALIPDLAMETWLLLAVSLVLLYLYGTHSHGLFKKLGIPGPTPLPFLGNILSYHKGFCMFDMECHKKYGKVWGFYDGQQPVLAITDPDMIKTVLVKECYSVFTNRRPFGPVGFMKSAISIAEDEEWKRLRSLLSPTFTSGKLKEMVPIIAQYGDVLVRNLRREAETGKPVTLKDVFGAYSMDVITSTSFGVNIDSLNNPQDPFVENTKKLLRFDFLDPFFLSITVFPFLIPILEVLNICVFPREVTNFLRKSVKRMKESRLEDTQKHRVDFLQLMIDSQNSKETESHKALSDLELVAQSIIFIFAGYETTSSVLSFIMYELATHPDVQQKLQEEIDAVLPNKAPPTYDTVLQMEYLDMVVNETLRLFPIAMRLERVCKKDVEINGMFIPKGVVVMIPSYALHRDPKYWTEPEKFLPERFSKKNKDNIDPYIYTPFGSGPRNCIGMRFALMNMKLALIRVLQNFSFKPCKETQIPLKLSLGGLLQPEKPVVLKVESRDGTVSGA

hepatocytes = test: in vitro metabolism in hepatocytes with 14C-labeled drug; type: in vitro ADME, mouse, rat, dog, rabbit, monkey, and human
[7] = glutathione binding and depletion in vitro; type: in vitro ADME
CYP enzymes = test: nonclinical CYP interaction studies; type: in vitro ADME
CXCL12 [8] = test: plasma chemokines in treated CLL patients; type: in vivo, human
CCL2 [9] = test: plasma chemokines in treated CLL patients; type: in vivo, human
BTK [10] = target: T1, BTK (Mus musculus, UniProt P35991); test: molecular probe assay, BTK occupancy in MDSCs from tumor bearing PDA mice; type: in vivo; conditions: 15 mg/kg BID, Day 8, 4 hours post dose, granulocytic and monocytic MDSC (N=5)
T1 construct: MDSCs were purified from tumor bearing PDA mice; from tissue; host or cells: granulocytic and monocytic MDSCs purified from tumour-bearing PDA mice
T1 sequence (P35991 whole entry): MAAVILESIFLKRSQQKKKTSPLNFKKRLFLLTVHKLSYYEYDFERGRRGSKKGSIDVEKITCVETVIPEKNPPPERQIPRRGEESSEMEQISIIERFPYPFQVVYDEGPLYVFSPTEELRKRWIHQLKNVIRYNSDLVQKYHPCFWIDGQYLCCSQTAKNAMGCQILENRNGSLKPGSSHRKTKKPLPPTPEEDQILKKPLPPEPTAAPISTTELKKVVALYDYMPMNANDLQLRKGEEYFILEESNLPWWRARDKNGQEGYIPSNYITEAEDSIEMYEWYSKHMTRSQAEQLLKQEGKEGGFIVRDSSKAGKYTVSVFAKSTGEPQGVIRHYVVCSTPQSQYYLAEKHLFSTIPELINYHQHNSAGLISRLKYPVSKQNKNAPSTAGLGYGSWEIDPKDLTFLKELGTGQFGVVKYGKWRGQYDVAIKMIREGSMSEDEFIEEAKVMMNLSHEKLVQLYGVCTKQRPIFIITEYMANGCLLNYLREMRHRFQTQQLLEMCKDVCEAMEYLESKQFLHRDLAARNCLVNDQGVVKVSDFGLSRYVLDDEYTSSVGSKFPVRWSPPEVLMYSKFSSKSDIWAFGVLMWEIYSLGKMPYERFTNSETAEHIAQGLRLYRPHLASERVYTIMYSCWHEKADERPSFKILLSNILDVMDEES
Excerpt: A molecular probe assay was used to calculate the percent irreversible occupancy of total BTK.

NSCLC (KrasLA2) tumors = test: genetic tumor model of NSCLC (KrasLA2); type: in vivo, mice; conditions: 15 mg/kg
Excerpt: The model is designed to have sporadic expression in single cells of G12D mutant Kras off its own promoter triggered by spontaneous intrachromosomal recombination. Johnson, et al. Nature 2001, 410, 1111-16. While the mutant Kras protein is expressed in a few cells in all tissues, tumor development is seen only in the lung at high penetrance.

[11] = preliminary brain PK experiments, oral gavage; type: in vivo, Sprague-Dawley rats; conditions: 5 or 30 mg/kg/day oral
Excerpt: Two vehicle treated rats were sacrificed on each sampling day for comparison.

[12] = preliminary evaluations of metabolism in plasma, bile, and urine; type: in vivo; conditions: rats, dogs, and monkeys
CLL [13] = conditions: human, in vivo
Excerpt: (§1) This study is a multicenter, open-label, nonrandomized, sequential group, dose escalation study. The following dose cohorts will be evaluated:
(§2) Each cohort will be enrolled sequentially with 6 subjects per cohort. If ≤1 dose-limiting toxicity (DLT) is observed in the cohort during Cycle 1, escalation to the next cohort will proceed. Subjects may be enrolled in the next cohort if 4 of the 6 subjects enrolled in the cohort completed Cycle 1 without experiencing a DLT, while the remaining 2 subjects are completing evaluation. If ≥2 DLTs are observed during Cycle 1, dosing at that dose and higher will be suspended and the MTD will be established as the previous cohort. […] Dose escalation will end when either the MTD is achieved or at 3 dose levels above full BTK occupancy, whichever occurs first. […] Should escalation to Cohort 6 be necessary, the dose will be determined based on the aggregate data from Cohorts 1 to 5, which includes safety, efficacy, and PK/PD results. The dose for Cohort 6 will not exceed 900 mg/day.
(§3) Dose-limiting toxicity is defined as any of the following events (if not related to disease progression): (1) any Grade ≥3 non-hematologic toxicity (except alopecia) persisting despite receipt of a single course of standard outpatient symptomatic therapy (e.g., Grade 3 diarrhea that responds to a single, therapeutic dose of Imodium® would not be considered a DLT); (2) grade ≥3 prolongation of the corrected QT interval (QTc), as determined by a central ECG laboratory overread; (3) grade 4 neutropenia (absolute neutrophil count [ANC]<500/μL) lasting >7 days after discontinuation of therapy without growth factors or lasting >5 days after discontinuation of therapy while on growth factors (i.e., Grade 4 neutropenia not lasting as long as specified will not be considered a DLT), (4) grade 4 thrombocytopenia (platelet count <20,000/μL) lasting >7 days after discontinuation of therapy or requiring transfusion (i.e., Grade 4 thrombocytopenia not lasting as long as specified will not be considered a DLT), and (5) dosing delay due to toxicity for >7 consecutive days.
(§4) The study scheme is a sequential cohort escalation. Each cohort consists of six subjects. The sample size of the study is 24 to 36 subjects, depending on dose escalation into subsequent cohorts. […] The dose level for Cohort 6 will be determined based on the safety and efficacy of Cohorts 1 to 5, and will not exceed 900 mg/day. Escalation will end with either the MTD cohort or three levels above full BTK occupancy, whichever is observed first. An additional arm of the study will explore 100 mg BID dosing.
(§5) The route of administration is oral (per os, or PO). The dose regimen is once daily or twice daily, as defined by the cohort, on an empty stomach (defined as no food 2 hours before and 30 minutes after dosing).

[14] = study of respiratory function; conditions: rats, doses through 300 mg/kg
[15] = test system: 80 known pharmacologic targets such as G-protein-coupled receptors, nuclear receptors, proteases, and ion channels; test: binding assays with 80 known pharmacologic targets; conditions: screened at 10 μM
BTK [16] = target: BTK (Homo sapiens, UniProt Q06187); test: BTK target occupancy in relapsed/refractory CLL patients; conditions: at lower dosage versus ibrutinib, FIG. 131
Sequence of BTK (Homo sapiens, UniProt Q06187) (Q06187 whole entry): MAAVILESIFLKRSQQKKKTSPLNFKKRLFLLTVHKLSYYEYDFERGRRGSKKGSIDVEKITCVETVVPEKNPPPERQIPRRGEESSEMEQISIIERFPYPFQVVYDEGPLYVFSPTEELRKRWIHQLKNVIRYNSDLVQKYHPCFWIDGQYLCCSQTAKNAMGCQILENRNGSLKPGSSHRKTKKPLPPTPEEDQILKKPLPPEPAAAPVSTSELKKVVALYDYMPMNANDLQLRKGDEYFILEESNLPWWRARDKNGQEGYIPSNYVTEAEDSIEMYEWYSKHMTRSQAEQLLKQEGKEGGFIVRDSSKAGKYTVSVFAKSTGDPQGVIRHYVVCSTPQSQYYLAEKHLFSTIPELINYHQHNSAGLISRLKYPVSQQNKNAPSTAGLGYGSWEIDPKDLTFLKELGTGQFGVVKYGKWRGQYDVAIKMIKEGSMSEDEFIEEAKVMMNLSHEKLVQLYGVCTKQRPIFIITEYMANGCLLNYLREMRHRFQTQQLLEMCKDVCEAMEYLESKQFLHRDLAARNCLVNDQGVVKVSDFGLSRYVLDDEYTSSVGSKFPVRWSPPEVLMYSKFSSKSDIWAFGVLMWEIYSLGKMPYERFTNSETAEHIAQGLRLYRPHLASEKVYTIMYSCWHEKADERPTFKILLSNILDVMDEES

[17] = functional observation battery (GLP safety pharmacology); conditions: rats, doses through 300 mg/kg
EGFR = EGFR (Homo sapiens, UniProt P00533); test: EGF-induced EGFR phosphorylation in A431 cells (phosphoflow); conditions: 10 μM, A431 human epidermoid cancer cell line
Sequence of EGFR (P00533 25-1210): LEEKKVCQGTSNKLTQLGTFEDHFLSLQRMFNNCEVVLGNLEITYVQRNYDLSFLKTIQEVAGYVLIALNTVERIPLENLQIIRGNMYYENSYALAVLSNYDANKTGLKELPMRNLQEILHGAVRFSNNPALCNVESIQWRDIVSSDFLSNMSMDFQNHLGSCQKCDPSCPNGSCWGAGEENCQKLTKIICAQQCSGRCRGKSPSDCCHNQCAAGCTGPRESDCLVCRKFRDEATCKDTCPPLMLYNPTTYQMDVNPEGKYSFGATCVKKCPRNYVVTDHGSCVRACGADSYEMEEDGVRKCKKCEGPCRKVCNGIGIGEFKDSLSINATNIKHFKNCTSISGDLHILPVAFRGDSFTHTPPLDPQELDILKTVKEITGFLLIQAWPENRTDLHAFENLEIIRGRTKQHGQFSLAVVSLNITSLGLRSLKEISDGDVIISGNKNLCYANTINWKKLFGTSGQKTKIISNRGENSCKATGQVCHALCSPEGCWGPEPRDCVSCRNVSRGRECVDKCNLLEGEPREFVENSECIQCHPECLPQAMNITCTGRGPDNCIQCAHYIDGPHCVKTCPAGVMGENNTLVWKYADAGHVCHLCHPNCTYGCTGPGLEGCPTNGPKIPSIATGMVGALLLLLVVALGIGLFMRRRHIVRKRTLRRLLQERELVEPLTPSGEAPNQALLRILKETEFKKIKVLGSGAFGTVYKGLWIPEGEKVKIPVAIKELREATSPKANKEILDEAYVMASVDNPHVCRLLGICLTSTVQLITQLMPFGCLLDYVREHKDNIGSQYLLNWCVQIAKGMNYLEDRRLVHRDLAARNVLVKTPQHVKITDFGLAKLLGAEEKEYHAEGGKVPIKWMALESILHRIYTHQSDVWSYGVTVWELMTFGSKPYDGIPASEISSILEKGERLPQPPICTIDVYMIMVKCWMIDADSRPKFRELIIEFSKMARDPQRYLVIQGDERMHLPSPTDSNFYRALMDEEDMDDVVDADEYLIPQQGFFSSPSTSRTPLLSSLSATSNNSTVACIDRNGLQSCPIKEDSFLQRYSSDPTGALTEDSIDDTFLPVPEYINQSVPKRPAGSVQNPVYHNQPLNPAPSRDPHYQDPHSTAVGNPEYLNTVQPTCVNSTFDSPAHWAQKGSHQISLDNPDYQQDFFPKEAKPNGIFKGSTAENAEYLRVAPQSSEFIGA

CLL [18] = test: clinical study of Formula (XVIII) in relapsed/refractory CLL
Excerpt: as §1, §2, §3, §4, §5

[19] = cardiovascular function study in awake telemeterized beagle dogs; conditions: male beagle dogs, single doses through 30 mg/kg
[20] = test system: GPVI platelet aggregation; test: GPVI platelet aggregation studies; type: cell-based; conditions: FIG. 122
[21] = within the tested dose range; cited from earlier work

With `C=CC(=O)Nc1cccc(Nc2nc(Nc3ccc(OCCOC)cc3)ncc2F)c1` [CC-292] the pEC50 (B cell receptor) was 6.92.

In the case of `CC#CC(=O)N1CCC[C@H]1c1nc(-c2ccc(C(=O)Nc3ccccn3)cc2)c2c(N)nccn12` [Formula (XVIII), (S)-4-(8-amino-3-(1-(but-2-ynoyl)pyrrolidin-2-yl)imidazo[1,5-a]pyrazin-1-yl)-N-(pyridin-2-yl)benzamide], the “in vivo potency, inhibition of expression of activation markers CD69 and CD86” value [1] was “more potent at inhibiting expression of activation makers than ibrutinib”, the “absolute lymphocyte count (ALC)” value (CLL [2]; relative to ibrutinib (Byrd et al. 2013)) was “much smaller relative increase and much faster decrease” and the “sum of the product of greatest diameters (SPD)” value (CLL [2]; versus ibrutinib) was “decreases more rapidly”. The apoptosis (CLL [3]) was “increased apoptosis”, the CXCL12 levels (CXCL12 [4]) was “decrease” and the CCL2 levels (CCL2 [5]) was “decrease”. For the same compound, the “effect on human platelet-mediated thrombus formation” value [6] was “no significant effect”, the “inhibition of GPVI platelet aggregation” value (human platelets) was “does not” and the “complete responses (CR)” value (canine B cell lymphoma; Arm 1: 21 dogs, Arm 2: 10 dogs) was “not observed”. The “dogs with shrinkage of target lesions >20%” value (canine B cell lymphoma; Arm 1: 21 dogs, Arm 2: 10 dogs) was 8 dogs, the “Median time to best response” value (canine B cell lymphoma; dog, in vivo) was 7 days and the “best tumor responses, reduction in the sum of target lesions” value (canine B cell lymphoma; dog, in vivo) was 45-49%. The “CYP responsible for metabolism” value (CYP3A4) was “metabolized by CYP3A4”, the unique human metabolite (hepatocytes; hepatocytes) was “No unique human metabolite” and the metabolites in hepatocytes (hepatocytes; mouse, rat, dog, rabbit, monkey, and human hepatocytes) was “two mono-oxidized metabolites and a glutathione conjugate”. The “glutathione binding and depletion” value [7] was “binds to glutathione but does not deplete glutathione”, the “potential for clinical drug-drug interactions via CYP enzymes” value (CYP enzymes) was “very unlikely to cause clinical drug-drug interactions” and the “plasma CXCL12 levels” value (CXCL12 [8]) was “significant decrease”. For the same compound, the “plasma CCL2 levels” value (CCL2 [9]) was “significant decrease”, the “irreversible occupancy of total BTK in MDSCs” value (BTK [10]) was “Complete BTK occupancy” and the number of tumors (NSCLC (KrasLA2) tumors) was “fewer overall tumors”. The “tumor volumes versus vehicle” value (NSCLC (KrasLA2) tumors) was “significant decrease”, the pEC50 (B cell receptor; B-cell) was 8.09 and the “levels in the brain and CSF samples” value [11] was “low but detectable levels”. The “metabolic processes in plasma, bile, and urine” value [12] was “oxidation, glutathione binding, and hydrolysis”, the MTD (CLL [13]) was “not reached” and the respiratory function [14] was “no treatment-related adverse effects”. For the same compound, the “activity in binding assays with 80 known pharmacologic targets” value [15] was “significant activity only against the A3 adenosine receptor”, the BTK target occupancy (BTK [16]) was “improved BTK target occupancy” and the “neurobehavioral effects or body temperature, functional observation battery” value [17] was “no adverse effects”. For the same compound, the “inhibition of in vitro EGFR phosphorylation” value (EGFR) was “no inhibition”, the PD (CLL [18]; 100 mg BID (N = 3)) was 0 (0) n (%) and the PR (CLL [18]; 100 mg BID (N = 3)) was 3 (100) n (%). For the same compound, the “PR + L” value (CLL [18]; 100 mg BID (N = 3)) was 0 (0) n (%), the PD (CLL [18]; 100 mg QD (N = 8)) was 0 (0) n (%) and the PR (CLL [18]; 100 mg QD (N = 8)) was 7 (88) n (%). The “PR + L” value (CLL [18]; 100 mg QD (N = 8)) was 0 (0) n (%), the PD (CLL [18]; 175 mg QD (N = 8)) was 0 (0) n (%) and the PR (CLL [18]; 175 mg QD (N = 8)) was 5 (63) n (%). The “PR + L” value (CLL [18]; 175 mg QD (N = 8)) was 3 (37) n (%), the PD (CLL [18]; 250 mg QD (N = 7)) was 0 (0) n (%) and the PR (CLL [18]; 250 mg QD (N = 7)) was 5 (71) n (%). For the same compound, the “PR + L” value (CLL [18]; 250 mg QD (N = 7)) was 2 (29) n (%), the PD (CLL [18]; 400 mg QD (N = 5)) was 0 (0) n (%) and the PR (CLL [18]; 400 mg QD (N = 5)) was 2 (40) n (%). For the same compound, the “PR + L” value (CLL [18]; 400 mg QD (N = 5)) was 2 (40) n (%), the PD (CLL [18]; All Cohorts (N = 31)) was 0 (0) n (%) and the PR (CLL [18]; All Cohorts (N = 31)) was 22 (71) n (%). For the same compound, the “PR + L” value (CLL [18]; All Cohorts (N = 31)) was 7 (23) n (%), the “treatment time at which median % change in SPD achieved the same status” value (CLL [18]; CLL patients, present study) was 7 months and the “Headache (treatment-related adverse event)” value (CLL [18]; Grade 1/2, All (N = 44)) was 7 (16) n (%). For the same compound, the “Diarrhea (treatment-related adverse event)” value (CLL [18]; Grade 1, All (N = 44)) was 4 (9) n (%), the “Increased tendency to bruise (treatment-related adverse event)” value (CLL [18]; Grade 1, All (N = 44)) was 6 (14) n (%) and the “Petechiae (treatment-related adverse event)” value (CLL [18]; Grade 1, All (N = 44)) was 3 (7) n (%). For the same compound, the “grade of AEs observed” value (CLL [18]; human, in vivo) was “only grade 1 AEs”, the lymphocytosis (CLL [18]; human, in vivo) was “A lack of lymphocytosis” and the “dose-limiting toxicities (DLTs)” value (CLL [18]; relapsed/refractory CLL) was “No DLTs”. The “treatment-related serious adverse events (SAEs)” value (CLL [18]; relapsed/refractory CLL) was “No treatment-related serious adverse events”, the “progression in patients with the 17p deletion” value (CLL [18]; to date) was “no 17p patients have progressed” and the “body temperature, cardiovascular, or ECG (including QT interval) parameters” value [19] was “no meaningful changes”.

For `C=CC(=O)N1CCC[C@@H](n2nc(-c3ccc(Oc4ccccc4)cc3)c3c(N)ncnc32)C1` [Formula (XX-A), reference compound], the pIC50 ([20]; Platelet) was 6.89.

`CC#CC(=O)N1CCC[C@H]1c1nc(-c2ccc(C(=O)Nc3ccccn3)cc2)c2c(N)nccn12` [Formula XVIII] showed a pIC50 [20] of 5.94.

For `C=CC(=O)Nc1cccc(Nc2nc(Nc3ccc(OCCOC)cc3)ncc2F)c1` [Formula XXVII (CC-292), N-(3-((5-fluoro-2-((4-(2-methoxyethoxy)phenyl)amino)pyrimidin-4-yl)amino)phenyl)acrylamide, reference compound], the “effect on human platelet-mediated thrombus formation” value [6] was “effect similar to Formula (XX-A) (ibrutinib)”.

In the case of `C=CC(=O)N1CCC[C@@H](n2nc(-c3ccc(Oc4ccccc4)cc3)c3c(N)ncnc32)C1` [ibrutinib], the pEC50 (B cell receptor; B-cell) is given as 8.21 and the “maximum tolerated dose (MTD)” value [21] is given as “No maximum tolerated dose”.

From patent US11654143B2, “Therapeutic combinations of a BTK inhibitor, a PI3K inhibitor, a JAK-2 inhibitor, and/or a BCL-2 inhibitor” (Acerta Pharma B.V., priority 2014, dated 2023)
